Test results taken from ChEMBL document CHEMBL1201862, “PubChem BioAssay data set” (2004).
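Protocol summary: plate cells (96-well), add compound at 5 concentrations, incubate 48 h, interpolate endpoints linearly. Abbreviation: GI50, concentration required for 50% inhibition of growth.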 Calls of active or inactive are those of the source. No stated cut-off is given here; in the data, active = GI50 up to about 1.1 µM and inactive = higher.

How the values were obtained:
Experiment in all cases: DTP human tumour cell line panel, 48 h
TK-10 = tested on: TK-10
HT-29 = tested on: HT-29
SK-OV-3 = tested on: SK-OV-3
OVCAR-3 = tested on: OVCAR-3
OVCAR-8 = tested on: OVCAR-8
T47D = tested on: T47D
Malme-3M = tested on: Malme-3M
SK-MEL-2 = tested on: SK-MEL-2
M14 = tested on: M14
CAKI-1 = tested on: CAKI-1
NCI-H460 = tested on: NCI-H460
SN12C = tested on: SN12C
UACC-257 = tested on: UACC-257
UACC-62 = tested on: UACC-62
786-0 = tested on: 786-0
EKVX = tested on: EKVX
OVCAR-5 = tested on: OVCAR-5
RPMI-8226 = tested on: RPMI-8226
HOP-92 = tested on: HOP-92
HCC 2998 = tested on: HCC 2998

Measured: GI50

COc1nc(C#CC(C)(C)C)nc(OC)n1
inactive: TK-10 27.4 µM | HT-29 40 µM | SK-OV-3 55 µM | OVCAR-3 28.6 µM | OVCAR-8 17.8 µM | T47D 55.5 µM | Malme-3M 19 µM | SK-MEL-2 30.3 µM | M14 36.6 µM | CAKI-1 22.3 µM | NCI-H460 26.8 µM | SN12C 21.9 µM | UACC-257 48.3 µM | UACC-62 14.8 µM | 786-0 23.8 µM | EKVX 36 µM | OVCAR-5 21.2 µM

CN(c1ccccc1)S(=O)(=O)c1ccc([N+](=O)[O-])cc1
inactive: TK-10 > 100 µM | HT-29 69.5 µM | OVCAR-3 > 100 µM | OVCAR-8 > 100 µM | T47D > 100 µM | Malme-3M 40.6 µM | SK-MEL-2 > 100 µM | M14 55.7 µM | CAKI-1 > 100 µM | NCI-H460 > 100 µM | SN12C > 100 µM | UACC-257 92.5 µM | 786-0 > 100 µM | EKVX > 100 µM | OVCAR-5 > 100 µM | RPMI-8226 61.5 µM

O=C1[C@H]2ON(c3ccccc3)C(c3ccc(Cl)cc3Cl)[C@H]2C(=O)N1c1ccc(Cc2ccc(N3C(=O)[C@@H]4ON(c5ccccc5)C(c5ccc(Cl)cc5Cl)[C@@H]4C3=O)cc2)cc1 (some centres undefined)
inactive: TK-10 > 100 µM | HT-29 > 100 µM | SK-OV-3 > 100 µM | OVCAR-3 > 100 µM | OVCAR-8 > 100 µM | Malme-3M 96.8 µM | SK-MEL-2 > 100 µM | M14 19.6 µM | HOP-92 > 100 µM | CAKI-1 > 100 µM | NCI-H460 > 100 µM | SN12C > 100 µM | UACC-257 > 100 µM | UACC-62 > 100 µM | 786-0 > 100 µM | EKVX > 100 µM | OVCAR-5 > 100 µM | RPMI-8226 > 100 µM | HCC 2998 > 100 µM

CCN(CC)c1c(-c2c(N(CC)CC)c(OC(C)=O)c3sccn3c2=O)c(=O)n2ccsc2c1OC(C)=O
inactive: TK-10 33.2 µM | HT-29 > 100 µM | SK-OV-3 73.3 µM | OVCAR-3 > 100 µM | OVCAR-8 33 µM | Malme-3M > 100 µM | SK-MEL-2 93.8 µM | M14 > 100 µM | HOP-92 > 100 µM | CAKI-1 > 100 µM | NCI-H460 > 100 µM | SN12C > 100 µM | UACC-257 > 100 µM | UACC-62 81.7 µM | 786-0 22.5 µM | EKVX > 100 µM | OVCAR-5 > 100 µM | RPMI-8226 > 100 µM | HCC 2998 > 100 µM

C/C(=N\N=C(N)N)c1sc(-c2nc(C)c(/C(C)=N/N=C(N)N)s2)nc1C
inactive: TK-10 > 100 µM | HT-29 > 66.8 µM | SK-OV-3 > 100 µM | OVCAR-3 > 85.5 µM | OVCAR-8 > 100 µM | Malme-3M > 100 µM | SK-MEL-2 > 100 µM | M14 > 100 µM | HOP-92 > 100 µM | CAKI-1 > 100 µM | NCI-H460 > 62.5 µM | SN12C > 100 µM | UACC-257 > 100 µM | UACC-62 > 100 µM | 786-0 > 47.9 µM | EKVX > 100 µM | OVCAR-5 > 100 µM | RPMI-8226 39.3 µM | HCC 2998 > 100 µM

CCCCCCCCCCCCCCCCOCC(CN(C)CCN(C)C)OCCCCCCCCCCCCCCCC (centres undefined)
inactive: TK-10 > 100 µM | HT-29 > 100 µM | SK-OV-3 > 100 µM | OVCAR-3 > 100 µM | OVCAR-8 > 100 µM | Malme-3M > 100 µM | SK-MEL-2 > 100 µM | M14 > 100 µM | HOP-92 > 100 µM | CAKI-1 > 100 µM | NCI-H460 > 100 µM | SN12C > 100 µM | UACC-257 > 100 µM | UACC-62 > 100 µM | 786-0 > 100 µM | EKVX > 100 µM | OVCAR-5 > 100 µM | RPMI-8226 > 100 µM | HCC 2998 > 100 µM
